Data reported in patent US10722575B2, “Use of 1,3-diphenylprop-2-en-1-one derivatives for treating liver disorders” (GENFIT, priority 2009, dated 2020).
Marks after values point to notes of the source that are not given here.

Tests used:
[1] = tested on: human primary hepatic stellate cells (hHSC); assay: PDGF-BB-induced hHSC proliferation, BrdU incorporation; format: cell-based; conditions: 10 μM, PDGF-BB 10 ng/ml
Method: (§1) Compounds were dissolved in dimethyl sulfoxide (DMSO, Fluka cat #41640)
(§2) The human primary hepatic stellate cells (hHSC) (ScienCell) were cultured in STeCM medium (ScienCell cat #5301) that was supplemented with 2% fetal bovine serum (FBS, ScienCell cat #0010), 1% penicillin/streptomycine (ScienCell cat #0503) and stellate cell growth supplement (SteCGS; ScienCell cat #5352). Culture plastics were coated with Poly-L Lysine (Sigma cat # P4707).
hHSC were plated at a density of 1.2×10^4 cells/well into 96-well plates and were cultured overnight at 37° C. and 5% CO2, followed by washing of cells with PBS (Invitrogen cat #14190) and replacing the growth medium with a serum-free and SteCGS-free medium for an additional 24 hours. For PDGF-induced proliferation assay, cells were pre-treated with a compound of General Formula (I) for 1 hour before the addition of PDGF-BB (10 ng/ml; R&D Systems cat #520-BB). Treatments were then continued for additional 20 hours.
Cell proliferation was measured by bromodeoxyuridine (BrdU) incorporation using a BrdU labeling and detection kit (Roche cat #11647229001). BrdU labeling solution was added to cells, followed by incubation for another 4 hours before fixation, addition of nucleases, addition of anti-BrdU-POD and peroxidase substrate. The absorbance at 405 nm (with a reference wavelength at 690 nm) was measured using an ELISA plate reader (Tecan).

[2] = tested on: human primary hepatic stellate cells (hHSC); assay: TGFβ1-induced hHSC activation, gene expression by quantitative PCR; format: cell-based; conditions: 10 μM, TGFβ1 1 ng/ml, 24 hours
Method: as §1, §2
The human primary hepatic stellate cells (hHSC) (ScienCell) were cultured under standard conditions, as described above. For experiments to determine gene expression patterns, hHSC were plated at a density of 7×10^4 cells/well into 24-well plates and were cultured overnight. Next day, culture medium was replaced by serum-free and SteCGS-free medium for an additional 16 hours. Cells were treated with a compound of General Formula (I) in addition to TGFβ1 (1 ng/ml) in a serum-free and SteCGS-free medium for 24 hours.
Total RNA was isolated using Nucleospin® 96 RNA kit (Macherey Nagel) following manufacturer's instructions. 100 ng of total RNA were reverse transcribed in cDNA using M-MLV RT (Moloney Murine Leukemia Virus Reverse Transcriptase) (Invitrogen cat #28025) in presence of RT buffer 1× (Invitrogen), 1 mM DTT (Invitrogen), 0.18 mM dNTPs (Promega), 200 ng pdN6 (Amersham) and 30U of RNase inhibitor (Promega).
Quantitative PCR was then carried out using the CFX96 TOUCH™ Real-Time PCR Detection System (Biorad). Briefly, PCR reactions were performed in 96 well plates on 5 μl of 5× diluted reverse transcription mix using the iQ SYBR Green Supermix kit. The experimental conditions were: 25 μl of volume reaction, 3 mM of MgCl2, and 0.5 μl each of reverse and forward primers (10 pMol).
Expression levels were normalized using the expression of 36B4 gene as reference (sequences SEQ ID NO: 1 and SEQ ID NO: 2 as shown above).
For each gene, the standard curves were drawn by selecting the best points (at least three points) in order to have PCR reaction efficiency close to 100% and a correlation coefficient close to 1. Expression levels were determined using the standard curve equation for both the housekeeping gene and the target gene (taking into account the specific PCR efficiency of each target gene).

| SMILES | Inhibition of the PDGF-BB-induced hHSC proliferation: BrdU Incorporation [1] | Inhibition of the TGFβ1-induced hHSC activation: Col1α1 [2] | Inhibition of the TGFβ1-induced hHSC activation: Col4α1 [2] | Inhibition of the TGFβ1-induced hHSC activation: αSMA [2] |
| --- | --- | --- | --- | --- |
| Cc1cc(C=CC(=O)c2ccc(OCCC3CCCCC3)cc2)cc(C)c1OC(C)(C)C(=O)O [Cpd 11 WO2005073184, 1-(4-Cyclohexylethyloxyphenyl)-3-(4-carboxydimethylmethyloxy-3,5-dimethylphenyl)prop-2-en-1-one] | −6%^ | −66% ** | −78% *** | −92% *** |
| Cc1cc(C=CC(=O)c2ccc(Cl)cc2)cc(C)c1OC(C)(C)C(=O)O [Cpd 17 WO2004OO5233, 1-[4-chlorophenyl]-3-[3,5-dimethyl-4-carboxydimethylmethyloxyphenyl]prop-2-en-1-one] | 6% | −29% | −56% *** | −30% *** |
| CCCCCCOc1ccc(C(=O)C=Cc2cc(C)c(OC(C)(C)C(=O)O)c(C)c2)cc1 [Cpd 33 WO2004OO5233, 1-[4-hexyloxyphenyl]-3-[3,5-dimethyl-4-carboxydimethylmethyloxyphenyl]prop-2-en-1-one] | 35%^ | −58% * | −73% *** | −71% *** |
| Cc1cc(C=CC(=O)c2ccc(Oc3ccccc3)cc2)cc(C)c1OC(C)(C)C(=O)O [Cpd 33 WO2005073184, 1-(4-Phenyloxyphenyl)-3-(4-carboxydimethylmethyloxy-3,5-dimethylphenyl)prop-2-en-1-one] | −127% *** | −37% | 12% ^ | −49% *** |
| Cc1cc(C=CC(=O)c2ccc(Br)cc2)cc(C)c1OC(C)(C)C(=O)O [Cpd 41 WO2004OO5233, 1-[4-bromophenyl]-3-[3,5-dimethyl-4-carboxydimethylmethyloxyphenyl]prop-2-en-1-one] | −34% | −28% | −32% ** | −2% |
| Cc1cc(C=CC(=O)c2ccc(SC(F)(F)F)cc2)cc(C)c1OC(C)(C)C(=O)O [Cpd 54 US20070032543, 1-[4-trifluoromethylthiophenyl]3-[3,5-dimethyl-4-carboxydimethymethyoxyphenyl]prop-2-en-1-one] | 12%^ | −27% | −40% *** | −57% *** |
| CCc1cc(C=CC(=O)c2ccc(C(C)C)cc2)cc(CC)c1OC(C)(C)C(=O)O [Cpd 56 US20070032543, 1-[4-isopropylphenyl]-3-[3,5-diethyl-4-carboxydimethylmethyloxyphenyl]prop-2-en-1-one] | −127% *** | −62% ** | −66% *** | −87% *** |
| Cc1cc(C=CC(=O)c2ccc(C(F)(F)F)cc2)cc(C)c1OC(C)(C)C(=O)O [Cpd 58 US20070032543, 1-[4-trifluoromethylphenyl]-3-[3,5-dimethyl-4-carboxydimethylmethyloxyphenyl]prop-2-en-1-one] | −5%^ | 55% * | −3% | 5%^ |
